Assay results reported in US8071780B2, “2-Hydroxymethyl-3,4,5-trihydroxy-1-benzilpiperidine derivatives as inhibitors of glucosylceramide” (Actelion Pharmaceuticals Ltd., priority 2003, dated 2011).

Columns and labels:
human GCS = biological target: T1, human GCS (Homo sapiens, UniProt Q16739); test: Cell-based IC50 for GCS inhibition by measuring glucosylceramide (GlcCer) depletion; conditions: MCF-7 cells cultured 5-7 days with compound; GlcCer depletion by HPTLC; read-out: Inhibition of GCS Cellular-based (IC50 μM)
T1 construct: endogenous in cells; host or cells: MCF-7
T1 sequence (Q16739 1-394): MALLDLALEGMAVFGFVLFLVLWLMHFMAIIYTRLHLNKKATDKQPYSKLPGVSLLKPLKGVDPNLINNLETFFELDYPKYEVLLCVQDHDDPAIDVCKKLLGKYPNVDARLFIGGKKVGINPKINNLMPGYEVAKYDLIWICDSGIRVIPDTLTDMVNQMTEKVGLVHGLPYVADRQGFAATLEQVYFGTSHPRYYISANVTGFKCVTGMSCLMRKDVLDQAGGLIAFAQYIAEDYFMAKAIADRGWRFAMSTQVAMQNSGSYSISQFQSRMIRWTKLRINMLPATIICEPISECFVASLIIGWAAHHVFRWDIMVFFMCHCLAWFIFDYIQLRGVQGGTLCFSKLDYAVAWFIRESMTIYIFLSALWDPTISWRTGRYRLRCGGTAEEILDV
Procedure: Estimating the Cell-Based IC50 for GCS Inhibition by Measuring Glucosylceramide (GlcCer) Depletion
Human mammary epithelial cells (MCF-7) were cultured for 5-7 days, with varying concentrations of a compound of the invention to be tested (0; 0.01; 0.05; 0.25; 1.25 and 6.25 μM). The cells were harvested and the total cellular lipids extracted. Neutral glycolipids were separated by partitioning in a DIPE/1-butanol/saline suspension, according to methods well known to those skilled in the art. The neutral glycolipid extracts were then separated by High-Performance Thin Layer Chromatography (HPTLC), using non-polar TLC conditions (chloroform:methanol: 0.2% CaCl2; 65:35:8), according to methods well known to those skilled in the art. GlcCer bands were visualized and the TLC plates were scanned immediately. Scion Image software was then used to quantify GlcCer in the samples relative to a GlcCer standard. This enabled a cell-based IC50 to be calculated for compounds of the invention for GCS inhibition.

[1] = biological target: T2, non-lysosomal-β-glucocerebrosidase (Homo sapiens, UniProt Q9HCG7); test: Inhibition of non-lysosomal-β-glucocerebrosidase; type: biochemical; conditions: whole cell extracts of MCF7 as enzyme source; 5 mM 4-MU β-glucoside; pH 5.8
T2 construct: whole cell extracts of MCF7 (a human breast carcinoma cell line) was used as the source of the enzyme; endogenous in cells; host or cells: MCF7 whole cell extract
T2 sequence (Q9HCG7 1-927): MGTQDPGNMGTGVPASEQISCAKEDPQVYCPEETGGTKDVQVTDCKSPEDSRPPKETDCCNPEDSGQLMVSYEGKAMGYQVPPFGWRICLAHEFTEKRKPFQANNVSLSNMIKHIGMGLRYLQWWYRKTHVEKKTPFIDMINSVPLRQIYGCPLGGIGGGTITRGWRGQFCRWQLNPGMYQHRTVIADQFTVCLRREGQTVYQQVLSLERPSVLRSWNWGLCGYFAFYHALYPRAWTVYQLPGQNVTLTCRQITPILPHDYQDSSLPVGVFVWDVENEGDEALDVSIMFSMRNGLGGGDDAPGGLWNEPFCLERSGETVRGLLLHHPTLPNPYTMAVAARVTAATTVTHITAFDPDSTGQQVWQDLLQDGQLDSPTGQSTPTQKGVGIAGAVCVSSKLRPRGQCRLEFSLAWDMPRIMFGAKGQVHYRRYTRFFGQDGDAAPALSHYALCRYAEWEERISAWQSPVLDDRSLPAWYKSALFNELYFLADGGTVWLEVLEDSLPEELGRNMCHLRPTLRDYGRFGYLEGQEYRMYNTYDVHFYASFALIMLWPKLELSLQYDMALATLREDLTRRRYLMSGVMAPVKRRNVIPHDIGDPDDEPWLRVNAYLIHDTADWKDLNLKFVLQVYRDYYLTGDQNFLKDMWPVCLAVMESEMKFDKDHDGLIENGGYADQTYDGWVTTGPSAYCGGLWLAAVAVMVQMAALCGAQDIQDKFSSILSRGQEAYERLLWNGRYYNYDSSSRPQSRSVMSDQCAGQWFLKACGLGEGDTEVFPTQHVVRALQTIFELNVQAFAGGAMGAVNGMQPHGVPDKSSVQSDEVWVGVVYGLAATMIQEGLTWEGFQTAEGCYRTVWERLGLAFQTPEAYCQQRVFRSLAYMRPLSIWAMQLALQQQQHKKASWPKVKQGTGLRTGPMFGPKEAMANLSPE
Procedure: Inhibition of non-lysosomal-β-glucocerebrosidase
The assay for inhibition of non-lysosomal-β-glucocerebrosidase was essentially carried out as described in Overkleeft, H. S. et al., J. Biol. Chem. (1998) 273, 26522-26527 with the following differences: whole cell extracts of MCF7 (a human breast carcinoma cell line) was used as the source of the enzyme instead of splenic membrane suspensions; 5 mM instead of 3 mM, 4-MU β-glucoside was used as substrate and 0.2M citrate/phosphate (pH 5.8) was used instead of McIlvaine buffer.

[2] = biological target: T3, human recombinant GCS expressed in insect cells (Homo sapiens, UniProt Q16739); test: Inhibition of GCS (glucosylceramide synthase); type: biochemical
T3 construct: made in house; host or cells: insect cells
T3 sequence (Q16739 1-394): T1 sequence (Q16739 1-394)
Procedure: The assay for inhibition of GCS was performed essentially as described in Platt et al., J. Biol. Chem., (1994), 269, 27108, the enzyme source being human recombinant GCS expressed in insect cells.

IC50 (human GCS) | Structure (SMILES) | IC50 [1] | IC50 [2]
~0.015 µM | CCCCCOc1ccc(CN2C[C@H](O)[C@@H](O)[C@H](O)[C@@H]2CO)cc1 [Example 1, 3,4,5-Piperidinetriol, 2-(hydroxymethyl)-1-[(4-pentyloxyphenyl)methyl]-, (2S,3R,4R,5S)] | 0.001 µM | 0.15 µM
– | CCCCOc1ccc(CN2C[C@H](O)[C@@H](O)[C@H](O)[C@@H]2CO)cc1 [Example 2, 3,4,5-Piperidinetriol, 1-[(4-butoxyphenyl)methyl]-2-(hydroxymethyl)-, (2S,3R,4R,5S)] | 0.004 µM | 0.42 µM
